Source: patent US6358921B1, “Antimicrobial peptide compositions and method” (priority 1996, dated 2002)

Assays:
E. coli DC2 = format: cell-based, Escherichia coli; settings: DC2
Procedure, shortened: (§1)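 MIC read-out, μg/ml, lowest peptide concentration with no growth after overnight incubation at 37 °C in LB liquid broth. Inoculum 5×10^5 CFU/mL from overnight cultures. Therapeutic index = concentration giving complete blood-cell lysis at 4 h divided by MIC.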

C. xeroses = format: cell-based, Corynebacterium xerosis
Procedure, shortened: (§2)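 Liquid-broth rather than agar method. Organisms: clinical isolates (C. albicans, S. epidermidis), environmental C. xerosis, wild-type E. coli UB1005.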

E. faecalis = format: cell-based, Enterococcus faecalis
Procedure, shortened: (§3)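 Antimicrobial activity is measured by a liquid-broth assay in LB at 37 °C overnight, starting from 5×10^5 CFU/mL. Values are minimal inhibitory concentrations, i.e. the lowest concentration that stops growth.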

S. epidermidis = format: cell-based, Staphylococcus epidermidis
Procedure, shortened: as §2

P. aeruginosa H187 = format: cell-based, Pseudomonas aeruginosa; settings: H187
Procedure, shortened: as §1

E. coli UB1005 = format: cell-based, Escherichia coli; settings: UB1005
Procedure, shortened: as §2

B. subtilis = format: cell-based, Bacillus subtilis
Procedure, shortened: as §3

P. aeruginosa H188 = format: cell-based, Pseudomonas aeruginosa; settings: H188
Procedure, shortened: as §3

[1] = Displacement of dansyl-polymyxin from LPS; format: binding, P. aeruginosa; settings: read-out: LPS binding affinity: peptide concentration to displace 50% of dansyl-polymyxin B from LPS; Tables 1, 4, 7
Procedure, shortened: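 Peptides titrated into 3 μg/mL P. aeruginosa LPS with 2.5 μM dansyl-polymyxin (~90% site saturation) in 5 mM sodium HEPES, pH 7.0; fluorescence decrease recorded. I50 (50% probe displacement) taken from the x-intercept of a double-reciprocal plot of percent inhibition versus inhibitor concentration.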

C. Albicans = format: cell-based, Candida albicans
Procedure, shortened: as §2

human erythrocytes = test: Hemolytic activity; format: cell-based
Procedure: Serial dilutions of the peptides in saline were prepared in round bottom microtitre plates using 100 μL volumes. Red blood cells were diluted with saline to 1/25 packed volume of cells and 50 μL added to each well. Plates were incubated with rocking at 37° C., and the concentration required for complete lysis determined visually after 4 h.

S. aureus SAP0017 = format: cell-based, Staphylococcus aureus
Procedure, shortened: (§4)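 Liquid-broth microdilution: overnight LB cultures at 37 °C, diluted to a final inoculum of 5×10^5 CFU/mL with serial peptide dilutions, incubated overnight at 37 °C. MIC (μg/ml) is the lowest concentration that inhibited growth. Therapeutic index is the concentration giving complete hemolysis at 4 h divided by the MIC.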

S. aureus K147 = format: cell-based, Staphylococcus aureus
Procedure, shortened: as §4

S. typhinurium C610 = format: cell-based, Salmonella typhinurium
Procedure, shortened: as §3

S. typhinurium C587 = format: cell-based, Salmonella typhinurium
Procedure, shortened: as §3

Compound	Minimum Inhibitory Concentration (activity) (E. coli DC2) [µg/mL]	Minimum Inhibitory Concentration (activity) (C. xeroses) [µg/mL]	Minimum Inhibitory Concentration (activity) (E. faecalis) [µg/mL]	Minimum Inhibitory Concentration (activity) (S. epidermidis) [µg/mL]	Minimum Inhibitory Concentration (activity) (P. aeruginosa H187) [µg/mL]	Minimum Inhibitory Concentration (activity) (E. coli UB1005) [µg/mL]	Minimum Inhibitory Concentration (activity) (B. subtilis) [µg/mL]	Minimum Inhibitory Concentration (activity) (P. aeruginosa H188) [µg/mL]	IC50 [1] [µM]	Minimum Inhibitory Concentration (activity) (C. Albicans) [µg/mL]	Hemolytic activity: peptide concentration for 100% lysis of human erythrocytes (human erythrocytes) [µg/mL]	Minimum Inhibitory Concentration (activity) (S. aureus SAP0017) [µg/mL]	Minimum Inhibitory Concentration (activity) (S. aureus K147) [µg/mL]	Minimum Inhibitory Concentration (activity) (S. typhinurium C610) [µg/mL]	Minimum Inhibitory Concentration (activity) (S. typhinurium C587) [µg/mL]
CC(C)C[C@@H]1NC(=O)[C@H](CCCCN)NC(=O)[C@H](C(C)C)NC(=O)[C@H](CCCCN)NC(=O)[C@@H]2CCCN2C(=O)[C@@H](Cc2ccc(O)cc2)NC(=O)[C@H](CCCCN)NC(=O)[C@H](CC(C)C)NC(=O)[C@H](CCCCN)NC(=O)[C@H](C(C)C)NC(=O)[C@@H](CCCCN)NC(=O)[C@@H]2CCCN2C(=O)[C@@H](Cc2ccc(O)cc2)NC(=O)[C@H](CCCCN)NC1=O [GS14invK1]	25	6.2	>200	100	12.5	25	>200	9	43	200	>800	>200	>200	62	150
CC(C)C[C@@H]1NC(=O)[C@H](CCCCN)NC(=O)[C@H](C(C)C)NC(=O)[C@H](CCCCN)NC(=O)[C@@H]2CCCN2C(=O)[C@@H](Cc2ccc(O)cc2)NC(=O)[C@H](CCCCN)NC(=O)[C@H](CC(C)C)NC(=O)[C@H](CCCCN)NC(=O)[C@H](C(C)C)NC(=O)[C@H](CCCCN)NC(=O)[C@@H]2CCCN2C(=O)[C@@H](Cc2ccc(O)cc2)NC(=O)[C@H](CCCCN)NC1=O [GS14inv]	0.8	0.8	200	25	12.5	12.5	>200	6.2	14	25	>800	200	>200	3.1	50
CC(C)C[C@@H]1NC(=O)[C@H](C(C)C)NC(=O)[C@H](CC(C)C)NC(=O)[C@@H]2CCCN2C(=O)[C@@H](Cc2ccc(O)cc2)NC(=O)[C@H](C(C)C)NC(=O)[C@H](CC(C)C)NC(=O)[C@H](C(C)C)NC(=O)[C@H](CCCCN)NC(=O)[C@H](CCCCN)NC(=O)[C@@H]2CCCN2C(=O)[C@@H](Cc2ccc(O)cc2)NC(=O)[C@H](CCCCN)NC(=O)[C@H](CCCCN)NC1=O [GS14napol]	4	1.2	75	25	50	18	>200	9	98	37	800	200	>200	25	50
CC(C)[C@@H]1NC(=O)[C@H](CCCCN)NC(=O)[C@H](C)NC(=O)[C@@H]2CCCN2C(=O)[C@@H](Cc2ccc(O)cc2)NC(=O)[C@H](C(C)C)NC(=O)[C@@H](CCCCN)NC(=O)[C@H](C)NC(=O)[C@H](CCCCN)NC(=O)[C@H](C(C)C)NC(=O)[C@@H]2CCCN2C(=O)[C@@H](Cc2ccc(O)cc2)NC(=O)[C@H](C)NC(=O)[C@H](CCCCN)NC1=O [L3/A3]	200	100	>200	>200	200	200	>200	75	243	>200	>800	>200	>200	100	>200
CC(C)C[C@@H]1NC(=O)[C@H](CCCCN)NC(=O)[C@H](C)NC(=O)[C@@H]2CCCN2C(=O)[C@@H](Cc2ccc(O)cc2)NC(=O)[C@H](CC(C)C)NC(=O)[C@H](CCCCN)NC(=O)[C@H](C)NC(=O)[C@H](CCCCN)NC(=O)[C@H](CC(C)C)NC(=O)[C@@H]2CCCN2C(=O)[C@@H](Cc2ccc(O)cc2)NC(=O)[C@H](C)NC(=O)[C@@H](CCCCN)NC1=O [V3/A3]	9	3.1	>200	50	75	12.5	>200	18	163	50	>800	>200	>200	62	35
CC(C)C[C@@H]1NC(=O)[C@H](CCCCN)NC(=O)[C@H](CC(C)C)NC(=O)[C@@H]2CCCN2C(=O)[C@@H](Cc2ccc(O)cc2)NC(=O)[C@H](CC(C)C)NC(=O)[C@@H](CCCCN)NC(=O)[C@H](CC(C)C)NC(=O)[C@H](CCCCN)NC(=O)[C@H](CC(C)C)NC(=O)[C@@H]2CCCN2C(=O)[C@@H](Cc2ccc(O)cc2)NC(=O)[C@H](CC(C)C)NC(=O)[C@H](CCCCN)NC1=O [V3/L3]	3.1	1	1.5	1.5	100	6.2	9	3.1	46	4	25	12.5	25	15	100
C[C@@H]1NC(=O)[C@H](CCCCN)NC(=O)[C@H](C)NC(=O)[C@@H]2CCCN2C(=O)[C@@H](Cc2ccc(O)cc2)NC(=O)[C@H](C)NC(=O)[C@@H](CCCCN)NC(=O)[C@H](C)NC(=O)[C@H](CCCCN)NC(=O)[C@H](C)NC(=O)[C@@H]2CCCN2C(=O)[C@@H](Cc2ccc(O)cc2)NC(=O)[C@H](C)NC(=O)[C@H](CCCCN)NC1=O [V3L3/A6]	>200	200	>200	>200	>200	>200	>200	75	291	400	>800	>200	>200	>200	>200
